Experiments:
[1] = target: Sigma-1 receptors on Jurkat cell membranes (Homo sapiens (Human), UniProt Q99720); experiment: Competitive Radioligand Binding Assay 1, Sigma-1 binding ([3H](+)pentazocine displacement); conditions: sigma-1 receptor affinity; read-out: S1 Ki
[2] = target: Sigma-2 receptors on membranes from rat cerebral cortex (Rattus norvegicus (Rat), UniProt Q5U3Y7); experiment: Competitive Radioligand Binding Assay 1, Sigma-2 binding ([3H]DTG displacement with (+)pentazocine mask); conditions: sigma-2 receptor affinity; read-out: S2 Ki
Procedure, shortened: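 Displacement of [3H]DTG by test compounds from rat cerebral cortex membranes in presence of 300 nM (+)pentazocine masking sigma-1 sites; 10 μM haloperidol defines non-specific binding. Filtration and scintillation counting; Ki from displacement curves.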

[3] = test system: Abeta oligomer-induced membrane trafficking deficits in primary hippocampal neurons; experiment: Membrane Trafficking/Exocytosis (MTT) assay, Abeta oligomer effect on neurons; assay type: cell-based, rat; conditions: membrane trafficking; read-out: EC50 Abeta;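 also: compound potency for inhibiting the Abeta oligomer effect on exocytosis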
Procedure, shortened: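 Rat E18 hippocampal neurons cultured 3 weeks received compound (100 uM to 0.001 nM), then vehicle or Abeta 1-42 oligomers (3 μM total Abeta), for 1-24 h at 37 °C. MTT was added for 1 h, and formazan vesicle exocytosis was quantified by automated imaging with DAPI toxicity check. Tukey-Kramer comparisons were made with N=4.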

[4] = Mouse liver microsome (MLM) stability; assay type: in vitro ADME; conditions: microsomal stability in mouse liver microsomes (MLM)
Protocol: A first pharmacokinetic study was performed in microsomes of mice mouse liver microsomes, MLM).
Microsomal stability experiments and plasma stability experiments were performed to determine metabolic and hepatic stability of candidate compounds.

potassium channel hERG = potassium channel hERG (Homo sapiens (Human), UniProt Q12809); experiment: In vitro testing for hERG inhibition; assay type: biochemical; conditions: in vitro toxicity potassium channel hERG
Protocol: In vitro testing for hERG inhibition was performed in a standard assay (See: Haverkamp W, Breithardt G, Carnm A J, Janse M J, Rosen M R, Antzelevitch C, Escande D, Franz M, Malik M, Moss A and Shah R. (2000) Eur Heat J 21 (15); 1216-31).

log P = assay type: physicochemical
Procedure, shortened: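 Ratio of un-ionized compound concentrations between octanol and water, with aqueous pH set so the un-ionized form predominates. Value given as the log of the octanol/water ratio.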

Chain of potassium channel hERG (Q12809 whole entry): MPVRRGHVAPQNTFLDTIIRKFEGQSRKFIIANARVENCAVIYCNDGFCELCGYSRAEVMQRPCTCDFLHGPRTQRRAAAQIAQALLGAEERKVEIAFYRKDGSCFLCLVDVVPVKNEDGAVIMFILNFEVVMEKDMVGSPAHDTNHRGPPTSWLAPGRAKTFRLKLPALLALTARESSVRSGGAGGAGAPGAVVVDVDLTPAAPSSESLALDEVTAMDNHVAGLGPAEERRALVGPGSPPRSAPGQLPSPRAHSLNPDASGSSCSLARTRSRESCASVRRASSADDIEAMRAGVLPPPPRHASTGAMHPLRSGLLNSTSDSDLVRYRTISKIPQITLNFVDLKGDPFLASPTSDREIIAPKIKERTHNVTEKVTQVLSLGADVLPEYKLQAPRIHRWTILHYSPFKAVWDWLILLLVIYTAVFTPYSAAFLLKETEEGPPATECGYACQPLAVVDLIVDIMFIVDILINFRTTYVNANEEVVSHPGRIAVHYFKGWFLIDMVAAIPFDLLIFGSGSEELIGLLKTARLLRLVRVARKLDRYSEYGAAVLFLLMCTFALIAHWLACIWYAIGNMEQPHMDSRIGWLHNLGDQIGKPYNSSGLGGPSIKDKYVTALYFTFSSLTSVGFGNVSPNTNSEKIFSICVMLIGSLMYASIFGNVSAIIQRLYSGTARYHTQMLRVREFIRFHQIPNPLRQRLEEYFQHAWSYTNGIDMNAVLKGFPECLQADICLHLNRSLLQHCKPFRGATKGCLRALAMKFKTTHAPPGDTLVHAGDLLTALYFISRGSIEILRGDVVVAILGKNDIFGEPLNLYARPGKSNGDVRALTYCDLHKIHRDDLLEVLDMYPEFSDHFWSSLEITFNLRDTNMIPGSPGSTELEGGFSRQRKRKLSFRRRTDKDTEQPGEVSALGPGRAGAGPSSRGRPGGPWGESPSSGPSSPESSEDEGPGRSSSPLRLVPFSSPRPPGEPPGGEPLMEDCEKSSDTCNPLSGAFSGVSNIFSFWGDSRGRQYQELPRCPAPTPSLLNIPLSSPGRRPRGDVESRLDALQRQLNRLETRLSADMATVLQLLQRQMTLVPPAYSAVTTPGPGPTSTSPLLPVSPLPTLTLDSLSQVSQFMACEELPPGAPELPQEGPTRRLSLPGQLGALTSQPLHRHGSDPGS
Chain of Sigma-2 receptors on membranes from rat cerebral cortex (Q5U3Y7 whole entry): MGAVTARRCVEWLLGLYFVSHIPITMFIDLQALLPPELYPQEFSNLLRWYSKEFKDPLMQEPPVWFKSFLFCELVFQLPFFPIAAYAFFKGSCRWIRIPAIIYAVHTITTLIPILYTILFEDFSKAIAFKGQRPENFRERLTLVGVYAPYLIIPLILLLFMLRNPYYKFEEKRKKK
Chain of Sigma-1 receptors on Jurkat cell membranes (Q99720 whole entry): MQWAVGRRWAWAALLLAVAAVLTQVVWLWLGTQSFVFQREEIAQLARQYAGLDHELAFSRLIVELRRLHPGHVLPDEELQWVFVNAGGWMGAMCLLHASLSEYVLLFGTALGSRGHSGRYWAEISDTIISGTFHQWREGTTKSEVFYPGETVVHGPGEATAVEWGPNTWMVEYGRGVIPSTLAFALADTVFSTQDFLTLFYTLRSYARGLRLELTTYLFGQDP

Row | Compound | Ki [1] [nM] | Ki [2] [nM] | EC50 [3] [nM] | MLM T1/2 [4] [min] | IC50 (potassium channel hERG) [nM] | log P (log P)
1 | CC(C)=CC(CC(C)(C)c1ccc(C(F)(F)F)cc1)N1CCC(CCO)CC1 (stereo not drawn) [Compound 28] | 6.1 | 18 | 4000 | 60 | 10200 | 5.68
2 | CC(C)=CC(CC(C)(C)c1ccc(C(F)(F)F)cc1)N1CCCCC1 (stereo not drawn) [Compound 61] | 160 | 230 | 4700 | 53 | 7300 | 6.38
